Here are results for 11 compounds from ChEMBL document CHEMBL1201862, “PubChem BioAssay data set” (2004).

The structures appear in SMILES notation.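 Protocol summary: plate cells (96-well), add compound at 5 concentrations, incubate 48 h, interpolate endpoints linearly. GI50 is the concentration that inhibits growth by half.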 Calls of active or inactive are those of the source. Cut-off read from the data, not from the text of the source: active = GI50 up to about 1.1 µM and inactive = higher.

Test systems include 786-0; BT-549; CAKI-1; COLO 205; HCT-116; HCT-15; HL-60; HOP-62; MDA-MB-231; MDA-N; OVCAR-4; SK-OV-3; SN12C; SR; SW-620; UO-31; CCRF-CEM; HCC 2998; SNB-75; UACC-257.
Experiment in all cases: NCI anticancer screen, dose series, 48 h

In the case of `C=CCN1C[C@@H](C)N([C@@H](c2ccccc2)c2ccc(C(=O)N(CC)CC)cc2)C[C@@H]1C`, the GI50 in the experiment on 786-0 was > 100 µM (inactive); in the experiment with BT-549 it was > 100 µM (inactive); with CAKI-1, > 100 µM (inactive); in the experiment with COLO 205 it was > 100 µM (inactive); in the experiment with HCT-116, > 100 µM (inactive); in the experiment on HCT-15, greater than 100 µM. For the same compound, the GI50 in the experiment with HL-60, in the experiment on HOP-62, in the experiment with MDA-MB-231, in the experiment with MDA-N, in the experiment with OVCAR-4 and in the experiment with SK-OV-3 was > 100 µM (inactive) throughout. The GI50 with SN12C, in the experiment on SR, in the experiment with SW-620 and in the experiment on UO-31 was > 100 µM (inactive) throughout.

With `CNC(=O)CCCNC(=O)CCCC(=O)OC`, the GI50 in the experiment with 786-0, in the experiment with BT-549, with CAKI-1, with CCRF-CEM, with COLO 205 and in the experiment on HCC 2998 was > 100 µM (inactive) each time. Further, the GI50 was > 100 µM (inactive) in the experiment with HCT-116; greater than 100 µM in the experiment on HCT-15; > 100 µM (inactive) in the experiment on HL-60; > 100 µM (inactive) in the experiment with HOP-62; > 100 µM (inactive) in the experiment with MDA-MB-231; > 100 µM (inactive) in the experiment with MDA-N. For the same compound, the GI50 with SK-OV-3, with SN12C, in the experiment on SNB-75, in the experiment on SW-620, with UACC-257 and in the experiment on UO-31 was > 100 µM (inactive) each time.

Consider `Oc1ccc2ccccc2c1-c1nnc(CCCCCCCCc2nnc(-c3c(O)ccc4ccccc34)o2)o1`, for which the GI50 in the experiment on 786-0 was 1.1 µM (active); in the experiment on BT-549 it was 23.1 µM (inactive); in the experiment on CAKI-1, 0.813 µM (active); in the experiment on CCRF-CEM, 0.448 µM (active); in the experiment with COLO 205 it was 15.3 µM (inactive); in the experiment on HCC 2998 it was 4.06 µM (inactive). The GI50 with HCT-116 was 1.18 µM (inactive); in the experiment on HCT-15, 0.815 µM; in the experiment with HL-60, 0.319 µM (active); in the experiment with HOP-62 it was 1.59 µM (inactive); in the experiment with MDA-MB-231 it was 3.52 µM (inactive); in the experiment on MDA-N, 4.23 µM (inactive). In addition, the GI50 was 1.15 µM (inactive) with OVCAR-4; 18.1 µM (inactive) in the experiment with SK-OV-3; 1.21 µM (inactive) in the experiment with SN12C; 21.4 µM (inactive) in the experiment on SNB-75; 3.44 µM (inactive) with SW-620; 10.2 µM (inactive) in the experiment on UACC-257. Further, the GI50 in the experiment on UO-31 is 0.389 µM (active).

As for `CNC(=S)c1nnsc1N`, the GI50 in the experiment on 786-0 was > 100 µM (inactive); in the experiment with BT-549, > 100 µM (inactive); in the experiment with CAKI-1 it was > 100 µM (inactive); in the experiment with CCRF-CEM, > 100 µM (inactive); with COLO 205, 0.043 µM (active); with HCC 2998, 29.5 µM (inactive). The GI50 was 66.4 µM (inactive) in the experiment on HCT-116; greater than 100 µM in the experiment with HCT-15; 0.0115 µM (active) in the experiment on HL-60; > 100 µM (inactive) in the experiment with HOP-62; > 100 µM (inactive) in the experiment with MDA-MB-231; > 100 µM (inactive) with MDA-N. Further, the GI50 in the experiment with OVCAR-4, in the experiment with SK-OV-3, in the experiment with SN12C, with SNB-75, in the experiment with SW-620 and in the experiment with UACC-257 was > 100 µM (inactive) in each case. For the same compound, the GI50 with UO-31 is > 100 µM (inactive).

Turning to `NC(=O)N/N=C(\Cc1nc2ccc(Cl)cc2nc1O)C(=O)Nc1ccc(Cl)cc1Cl`, the GI50 with 786-0, in the experiment with BT-549, with CAKI-1, in the experiment on CCRF-CEM, in the experiment on COLO 205 and in the experiment with HCC 2998 was > 100 µM (inactive) in each case. For the same compound, the GI50 is > 100 µM (inactive) in the experiment on HCT-116; greater than 100 µM with HCT-15; > 100 µM (inactive) with HL-60; > 100 µM (inactive) in the experiment on MDA-MB-231; > 100 µM (inactive) in the experiment on MDA-N; > 100 µM (inactive) in the experiment with OVCAR-4. For the same compound, the GI50 in the experiment on SK-OV-3, in the experiment with SN12C, in the experiment with SNB-75, in the experiment with SW-620, in the experiment on UACC-257 and in the experiment with UO-31 was > 100 µM (inactive) in each case.

Take `O=C(/C=C/c1ccccc1)CCc1c(O)c2ccccc2oc1=O`: the GI50 in the experiment with 786-0 is > 100 µM (inactive); in the experiment with BT-549 it was 32.4 µM (inactive); with CAKI-1, > 100 µM (inactive); in the experiment with CCRF-CEM, 45.4 µM (inactive); in the experiment with COLO 205, 89.1 µM (inactive); with HCC 2998, > 100 µM (inactive). The GI50 in the experiment with HCT-116 was 35.7 µM (inactive); with HCT-15, 76.7 µM; in the experiment with HL-60 it was > 10 µM (inactive); in the experiment with MDA-MB-231, 44 µM (inactive); in the experiment with MDA-N, 71.9 µM (inactive); in the experiment on OVCAR-4 it was 76.9 µM (inactive). The GI50 in the experiment on SK-OV-3 is > 100 µM (inactive); in the experiment with SN12C it was > 100 µM (inactive); with SNB-75 it was > 100 µM (inactive); in the experiment on SW-620, 53.8 µM (inactive); with UACC-257 it was > 100 µM (inactive); in the experiment on UO-31, 63.2 µM (inactive).

As for `S=C(c1c[nH]c2ccccc12)N1CCOCC1`, the GI50 with 786-0, with BT-549, in the experiment with CAKI-1, in the experiment with CCRF-CEM, in the experiment with COLO 205 and in the experiment with HCT-116 was > 100 µM (inactive) throughout. In addition, the GI50 with HCT-15 is greater than 100 µM; in the experiment on HL-60, > 100 µM (inactive); in the experiment on HOP-62, > 100 µM (inactive); with MDA-MB-231 it was > 100 µM (inactive); in the experiment on MDA-N, > 100 µM (inactive); with SK-OV-3 it was > 100 µM (inactive). Moreover, the GI50 with SN12C is > 100 µM (inactive); in the experiment on SNB-75 it was 0.52 µM (active); in the experiment on SR, > 100 µM (inactive); with SW-620, > 100 µM (inactive); in the experiment on UACC-257, > 100 µM (inactive); in the experiment on UO-31 it was 45.8 µM (inactive).

As for `C[n+]1c(/C=C/c2ccc(/C=N/NC(=O)c3ccc(C(=O)N/N=C/c4ccc(/C=C/c5cn6ccccc6[n+]5C)cc4)cc3)cc2)cn2ccccc21`, the GI50 with 786-0 is 16.6 µM (inactive); with BT-549 it was > 100 µM (inactive); in the experiment on CAKI-1, > 100 µM (inactive); in the experiment on CCRF-CEM it was 20 µM (inactive); in the experiment with COLO 205, 98.4 µM (inactive); with HCC 2998, > 100 µM (inactive). Besides, the GI50 in the experiment on HCT-116 was > 100 µM (inactive); with HCT-15, greater than 100 µM; in the experiment with HL-60, 23.4 µM (inactive); in the experiment on HOP-62 it was > 100 µM (inactive); in the experiment with MDA-MB-231 it was > 100 µM (inactive); in the experiment with MDA-N it was > 100 µM (inactive). Also, the GI50 in the experiment with SK-OV-3, with SN12C, with SNB-75, in the experiment on SW-620, in the experiment on UACC-257 and in the experiment with UO-31 was > 100 µM (inactive) in each case.

As to `C=C(C)COc1cc(/N=C(/S)OC(C)C)ccc1Cl`, the GI50 is 16.6 µM (inactive) with 786-0; 10.8 µM (inactive) in the experiment on BT-549; 15.3 µM (inactive) in the experiment on CAKI-1; 13.5 µM (inactive) in the experiment with CCRF-CEM; 16.3 µM (inactive) with COLO 205; 15.5 µM (inactive) in the experiment on HCC 2998. For the same compound, the GI50 in the experiment on HCT-116 was 15.2 µM (inactive); in the experiment on HCT-15, 15.7 µM; in the experiment on HL-60, 15.6 µM (inactive); with MDA-MB-231, 15.4 µM (inactive); in the experiment with MDA-N, 16.7 µM (inactive); in the experiment on OVCAR-4, 14.5 µM (inactive). Besides, the GI50 with SK-OV-3 is 19.3 µM (inactive); in the experiment on SN12C it was 16.1 µM (inactive); in the experiment with SNB-75, 15.2 µM (inactive); in the experiment on SW-620 it was 13.7 µM (inactive); in the experiment with UACC-257 it was 17.3 µM (inactive); in the experiment on UO-31 it was 13.5 µM (inactive).

Consider `O=C1N2CCc3c([nH]c4ccccc34)C23CC2CCCC12S3` (configuration not stated), for which the GI50 in the experiment with 786-0 is 33.7 µM (inactive); in the experiment with BT-549, 21.7 µM (inactive); with CAKI-1 it was > 50 µM (inactive); in the experiment on COLO 205 it was 26.7 µM (inactive); in the experiment on HCT-116, 20.6 µM (inactive); in the experiment on HCT-15 it was 18.1 µM. Also, the GI50 is > 50 µM (inactive) with HL-60; > 50 µM (inactive) in the experiment on HOP-62; > 50 µM (inactive) in the experiment with MDA-MB-231; 27.9 µM (inactive) in the experiment with MDA-N; 41 µM (inactive) in the experiment on OVCAR-4; > 50 µM (inactive) in the experiment on SK-OV-3. The GI50 with SN12C was 20.6 µM (inactive); in the experiment with SR, 28.9 µM (inactive); in the experiment on SW-620, > 50 µM (inactive); in the experiment on UACC-257 it was 18.2 µM (inactive); with UO-31 it was 32 µM (inactive).

For the compound `COc1ccc2c(c1)/C(=C\c1c(-c3ccccc3)nc3n1CCS3)C(=O)N2`, the GI50 in the experiment with 786-0 was 11.9 µM (inactive); in the experiment with BT-549 it was 9.51 µM (inactive); with CAKI-1, 4.99 µM (inactive); in the experiment on CCRF-CEM, 4.1 µM (inactive); in the experiment on COLO 205, 3.27 µM (inactive); in the experiment with HCC 2998, 10.6 µM (inactive). In addition, the GI50 with HCT-116 is 5.01 µM (inactive); in the experiment on HCT-15, 4.38 µM; in the experiment with HL-60 it was 3.04 µM (inactive); in the experiment on HOP-62, 10.5 µM (inactive); with MDA-MB-231, 4.03 µM (inactive); with MDA-N it was 1.87 µM (inactive). Moreover, the GI50 was 12.7 µM (inactive) in the experiment on SK-OV-3; 12.4 µM (inactive) in the experiment on SN12C; 12.8 µM (inactive) in the experiment with SNB-75; 2.99 µM (inactive) in the experiment with SW-620; 12.2 µM (inactive) in the experiment with UACC-257; 9.82 µM (inactive) in the experiment with UO-31.
